According to ChEMBL document CHEMBL5579856, “Stereospecific Synthesis and Biological Evaluation of KRN7000 Analogues with Thio-modifications at the Acyl Moiety” (2024):

Assays:
Assay type in all cases: functional
Settings in all cases: dose 200 µg/kg
Mus musculus [1] = assay: Induction of IFN-gamma secretion in male C57BL/6 mouse assessed as […] in serum at 200 ug/kg, iv measured after 16 hrs by ELISA (reference value: BLD)
Mus musculus [2] = assay: Induction of IL-4 secretion in male C57BL/6 mouse assessed as IL-4 level in serum at 200 ug/kg, iv measured after 4 hrs by ELISA (reference value: BLD)
Mus musculus [3] = assay: Induction of cytokine secretion in male C57BL/6 mouse assessed as ratio of IFN-gamma to IL-4 level in serum at 200 ug/kg, iv by ELISA

| SMILES | Activity (Mus musculus [1]) [pg/mL] | Activity (Mus musculus [2]) [pg/mL] | Ratio (Mus musculus [3]) |
| --- | --- | --- | --- |
| CCCCCCCCCCCCCC[C@@H](O)[C@@H](O)[C@H](CO[C@H]1O[C@H](CO)[C@H](O)[C@H](O)[C@H]1O)NC(=O)CCCCCCCCCCc1ccc(F)cc1 | 2470.48 | 425.65 | 2.03 |
| CCCCCCCCCCCCCCCCCCCCCCCCCC(=S)N[C@@H](CO[C@H]1O[C@H](CO)[C@H](O)[C@H](O)[C@H]1O)[C@H](O)[C@H](O)CCCCCCCCCCCCCC | 3291.25 | 951.79 | 1.21 |
| CCCCCCCCCCCCCC[C@@H](O)[C@@H](O)[C@H](CO[C@H]1O[C@H](CO)[C@H](O)[C@H](O)[C@H]1O)NC(=S)CCCCCCCCCCc1ccc(F)cc1 | 1610.18 | 276.98 | 2.03 |
| CCCCCCCCCCCCCC[C@@H](O)[C@@H](O)[C@H](CO[C@H]1O[C@H](CO)[C@H](O)[C@H](O)[C@H]1O)NC(=O)CCCCCCCCCCc1ccc(Sc2ccc(F)cc2)cc1 | 2100.52 | 324.56 | 2.26 |
| CCCCCCCCCCCCCC[C@@H](O)[C@@H](O)[C@H](CO[C@H]1O[C@H](CO)[C@H](O)[C@H](O)[C@H]1O)NC(=S)CCCCCCCCCCc1ccc(Oc2ccc(F)cc2)cc1 | 571.16 | 125.69 | 1.59 |
| CCCCCCCCCCCCCC[C@@H](O)[C@@H](O)[C@H](CO[C@H]1O[C@H](CO)[C@H](O)[C@H](O)[C@H]1O)NC(=O)CCCCCCCCCCc1ccc(Oc2ccc(F)cc2)cc1 | 655.43 | 205.34 | 1.12 |
| CCCCCCCCCCCCCC[C@@H](O)[C@@H](O)[C@H](CO[C@H]1O[C@H](CO)[C@H](O)[C@H](O)[C@H]1O)NC(=S)CCCCCCCCCCc1ccc(Sc2ccc(F)cc2)cc1 | 1046.54 | 396.07 | 0.99 |
| CCCCCCCCCCCCCCCCCCCCCCCCCC(=O)N[C@@H](CO[C@H]1O[C@H](CO)[C@H](O)[C@H](O)[C@H]1O)[C@H](O)[C@H](O)CCCCCCCCCCCCCC [RGI-7000] | 3083.43 | 1077.7 | – |
